From patent US7923228B2, “Methods and compositions for growth of hydrocarbons in Botryococcus sp” (priority 2005, dated 2011)

System: Botryococcus sp. colonies
Assay: Flotation (buoyancy) of sunken colonies as visual readout of hydrocarbon content
Format: cell-based
Excerpt: Previous investigations (Ohmori, et al. 1984; and Wolf, et al, 1985) verified that colonies containing greater than 20% of dry weight as botryococcenoid hydrocarbons were buoyant and that colonies containing less than 5% hydrocarbons remained sunken at the bottom of the culture vessel, providing a visual method for selecting cells with commercial-grade hydrocarbons. […] Colonies in hydrocarbon-enhancement were placed in the dark without supplemental carbon dioxide gas to eliminate artifacts of flotation from bubbles. Environmental conditions were 150 μE/m^2/sec PAR to 1700 μE/m^2/sec PAR at 25-37° Centigrade. Nutrient chemicals were reagent grade in all laboratory-scale experiments. In field-scale tests, fertilizer grade chemical nutrients were provided. In order to minimize or eliminate ammonia, nitrates were optionally kiln dried prior to admixture. Supplementation with 0.1% to 100% carbon dioxide gas or carbonate (e.g., 10 mg/ml sodium bicarbonate or potassium bicarbonate) increased hydrocarbon synthesis substantially, especially, when under the highest light intensities with soluble elements of the present invention. […]

phosphates
total phosphate concentration that stimulated the rise of colonies to the surface (subtractive matrix analysis, most rapid in presence of soluble Mg, Mn, Fe, Zn+2): greater than 80 mM | state of colonies after long exposure (two weeks or more in 300 mM phosphate): remained floating, but cleared to amber
